# Laboratory results: patent US20150017673A1, “COMPOSITIONS AND METHODS FOR DRUG-SENSITIZATION OR INHIBITION OF A CANCER CELL” (priority 2012, published 2015)
# Columns and labels:
# ABCB1 pumps = ABCB1 pumps (Homo sapiens, UniProt P08183); conditions: NCI/ADR-RES and G3 cells
# ROS in G3 lymphoma cells = assay: Intracellular ROS (CellROX, flow cytometry) in G3 cells; assay type: cell-based, human; conditions: 10 uM rifabutin over time
# CRL2631 cells [1] = assay: Modified Boyden chamber invasion assay, CRL2631 cells; assay type: cell-based, human; conditions: 10 μM rifabutin 24 hours; DMSO 39,356
# Procedure: A modified Boyden chamber assay was used as an independent method to evaluate rifabutin's ability to suppress invasion/metastasis. […] Cell invasion was assessed with a Chemicon QCM Collagen Invasion Assay (Millipore). The assay is a 96-well plate assay wherein each well is equipped with a suspended insert. Inserts contain an 8-micron membrane coated with a thin layer of polymerized collagen. Invading cells migrate through the collagen layer and attach to the bottom of the membrane. Cells were detached from the membrane and lysed prior to detection via CyQuant dye. Fluorescence intensity is proportional to number of invading cells. […] In CRL2631 cells RLU decreases from 39,356 to 27,432 RLU in the presence of rifabutin (p<0.05).
# [2] = system: multi-drug resistant ovarian carcinoma cell line SK-OV3; assay: Cell growth assay on SK-OV3 cells; assay type: cell-based, human; conditions: SK-OV3, ovarian carcinoma
# CRL2631 cells [3] = assay: Collagen invasion 3D assay, CRL2631 cells; assay type: cell-based, human; conditions: 10 uM Rifabutin in collagen matrix, 24 hours
# Procedure: The effects of rifabutin on cell invasion was assessed in a collagen invasion 3D assay. Increased interest in the use of 3D culture systems has been motivated by accumulating evidence that 3D models better reflect the microenvironment of tumors and metastases and more accurately predict therapeutic response in vivo compared with conventional 2D assays. A collagen invasion 3D assay allows the rapid and quantitative assessment of invasiveness and a means to screen for drugs which alter the invasive phenotype of tumor cells.
# The CHOP-resistant G3 cell line is much more invasive in a collage invasion 3D assay than its CHOP-sensitive parent cell line (CRL2631). Collagen matrices (1 mg/ml) were prepared as previously described in Su, S. C., et al., Molecular profile of endothelial invasion of three-dimensional collagen matrices: insights into angiogenic sprout induction in wound healing. Am. J. Physiol. […] Cell invasion density was quantified by counting fixed cultures under transmitted light using an Olympus CK2 inverted microscope equipped with eyepieces displaying a 10×10 ocular grid. For each condition, four random fields were selected and the number of invading cells per high power field (HPF) was counted manually at 10× magnification, corresponding to 1 mm^2 area. […]
# [4] = system: human ovarian cancer cell line SK-OV-3; assay: SK-OV-3 xenograft efficacy study in SCID mice; assay type: in vivo
# Procedure: In a fifth efficacy study, we generated xenografts of the human ovarian cancer cell line SK-OV-3, a cell line considered doxorubicin-resistant, by bilateral subcutaneous (s.c.) injection of 1×10^7 tumor cells to establish localized tumors in 6-8 week old female SCID mice. Using rifabutin co-administered with DOX, in vivo efficacy was assessed. […] Cycles of Dox or Dox+rifabutin were given once a week for 4 cycles. This cyclical dosing scheme of mouse models has precedent in the literature and is intended to mimic the cycles of DOXIL® (Centocor Ortho Biotech Products, LP, Raritan, N.J.) given in the clinic. Rifabutin was administered on the day of each DOX treatment and by gavage. Mouse body weight and tumor size were monitored.
# [5] = system: CHOP-sensitive NHL cell line CRL2631; assay: Cell growth assay (resazurin) on CHOP-sensitive CRL2631 NHL cells; assay type: cell-based, human
# [6] = system: multi-drug-resistant breast cancer cell line MDA-MB-231; assay: Cell growth assay on MDA-MB-231 cells; assay type: cell-based; conditions: MDA-MB-231, breast carcinoma
# Procedure: (§1) Compositions were tested on CHOP-resistant G3 NHL cells that had been cultivated in RPMI medium for five days. Prior to assay, the cells were counted by haemocytometer and cell concentration standardized to 625,000 cells/ml. Test drugs were solubilized in 100% DMSO and then diluted to final assay concentration with 0.1M phosphate buffered saline (PBS) and a final DMSO concentration of 0.5%. Cells were added to assay plates containing the test drugs (rifabutin+148 ng/ml, 74 ng/ml, 37 ng/ml, or 0 ng/ml doxorubicin) and allowed to incubate for 96 hours at 37° C. and 5% CO2. The metabolic dye rezasurin was added to the wells of the assay plate at a final concentration of 20 μg/ml and the plates were incubated for an additional 24 hours. The plates were then read in a BMG Polarstar plate reader at wavelength (573-605) and the data plotted as OD versus increasing dilutions (i.e. decreasing total amounts) of rifabutin derivative concentration.
# (§2) In these experiments, the following cell lines were used: CHOP-resistant NHL cell line G3, CHOP-sensitive NHL cell line CRL2631, the multi-drug resistant sarcoma cell line MES-SA-Dx5; multi-drug-resistant breast cancer cell line MDA-MB-231, multi-drug resistant ovarian carcinoma cell line SK-OV3, multi-drug resistant ovarian cancer cell line NCI/ADR-RES, drug-sensitive ovarian cancer cell line OVCAR-5, and multi-drug resistant ovarian cancer cell line OVCAR-3.
# (§3) Additional cell lines used include: ovarian cancer OVCAR-8, T lymphoblastoid leukemia MOLT-4, dexamethasone-resistant multiple myeloma MM.1R, myeloid leukemia cells HL-60, osteosarcoma cells U-2 OS, and myeloma RPMI 8226.
# [7] = system: multi-drug resistant sarcoma cell line MES-SA-Dx5; assay: Cell growth assay on MES-SA-Dx5 cells; assay type: cell-based; conditions: MES-SA-Dx5, uterus sarcoma
# Procedure: as §1, §2, §3
# Sequence of ABCB1 pumps (P08183 whole entry): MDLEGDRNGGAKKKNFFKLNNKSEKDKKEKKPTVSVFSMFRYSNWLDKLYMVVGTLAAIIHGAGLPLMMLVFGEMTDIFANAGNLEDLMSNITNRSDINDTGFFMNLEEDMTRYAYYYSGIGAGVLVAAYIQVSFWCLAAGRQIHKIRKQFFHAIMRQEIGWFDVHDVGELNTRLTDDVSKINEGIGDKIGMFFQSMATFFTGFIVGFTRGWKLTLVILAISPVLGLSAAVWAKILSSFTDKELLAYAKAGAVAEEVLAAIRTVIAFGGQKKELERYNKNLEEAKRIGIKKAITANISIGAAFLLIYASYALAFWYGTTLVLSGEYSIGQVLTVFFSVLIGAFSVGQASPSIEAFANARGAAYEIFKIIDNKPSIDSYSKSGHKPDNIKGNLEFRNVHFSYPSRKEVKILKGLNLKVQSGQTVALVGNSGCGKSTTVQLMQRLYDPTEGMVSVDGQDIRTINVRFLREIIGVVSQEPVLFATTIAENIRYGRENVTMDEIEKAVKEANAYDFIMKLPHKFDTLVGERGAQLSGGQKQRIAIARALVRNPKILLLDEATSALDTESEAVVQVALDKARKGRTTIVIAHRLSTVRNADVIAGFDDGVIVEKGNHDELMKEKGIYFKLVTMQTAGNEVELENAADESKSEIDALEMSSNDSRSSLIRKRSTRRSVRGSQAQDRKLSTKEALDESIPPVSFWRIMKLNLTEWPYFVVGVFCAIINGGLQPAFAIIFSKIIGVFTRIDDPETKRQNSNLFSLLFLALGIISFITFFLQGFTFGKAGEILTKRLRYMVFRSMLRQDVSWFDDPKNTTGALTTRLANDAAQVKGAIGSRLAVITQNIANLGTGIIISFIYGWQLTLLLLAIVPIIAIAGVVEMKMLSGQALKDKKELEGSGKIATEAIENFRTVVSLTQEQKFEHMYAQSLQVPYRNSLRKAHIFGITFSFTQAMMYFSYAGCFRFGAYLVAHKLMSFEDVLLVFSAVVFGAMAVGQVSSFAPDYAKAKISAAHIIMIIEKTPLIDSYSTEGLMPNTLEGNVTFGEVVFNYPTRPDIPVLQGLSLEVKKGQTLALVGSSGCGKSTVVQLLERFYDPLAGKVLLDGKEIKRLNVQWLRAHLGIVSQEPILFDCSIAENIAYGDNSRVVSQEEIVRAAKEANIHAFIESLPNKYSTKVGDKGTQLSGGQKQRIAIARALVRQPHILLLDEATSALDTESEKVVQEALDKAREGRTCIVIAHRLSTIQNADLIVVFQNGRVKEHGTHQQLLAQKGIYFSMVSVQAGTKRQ
structure (smiles),measurement,setting,value
"CO[C@H]1/C=C/O[C@@]2(C)Oc3c(C)c(O)c4c(c3C2=O)C2=NC3(CCN(CC(C)C)CC3)NC2=C(NC(=O)/C(C)=C\C=C\[C@H](C)[C@H](O)[C@@H](C)[C@@H](O)[C@@H](C)[C@H](OC(C)=O)[C@@H]1C)C4=O [Rifabutin, rifabutin]",inhibition of efflux pumps,ABCB1 pumps,clear inhibition of efflux pumps
same,ROS induction,ROS in G3 lymphoma cells,rapidly induces ROS
same,relative fluorescence (invading cells),CRL2631 cells [1],"27,432 RLU"
same,Magnitude of potentiation in combination with doxorubicin,[2],+ (potentiation between 1.2 to 2.0 fold increase)
same,reduction of invasion,CRL2631 cells [3],Less of this effect
same,average tumor volume,"[4]; after 19 days treatment, DOX 3.3 mg/kg i.v. + rifabutin 25 mg/kg oral weekly",348 mm^3
same,reduction in tumor size versus DOX-only,"[4]; after 19 days, DOX 3.3 mg/kg i.v. + rifabutin 25 mg/kg oral",40%
same,sensitivity of cells to CHOP relative to a control drug,"[5]; CHOP-sensitive cells as printed, FIG. 2B",enhanced the sensitivity
same,CHOP sensitivity of low-ROS cell population,"[5]; low-ROS CRL2631 cells, 10 uM rifabutin",sensitized to CHOP
same,cell growth in the absence of CHOP,"[5]; rifabutin alone, CRL2631",did not affect the growth
same,Magnitude of potentiation in combination with doxorubicin,[6],+++ (potentiation greater than 5 fold increase)
same,Magnitude of potentiation in combination with doxorubicin,[7],++ (potentiation between 2.1 to 5 fold increase)
